Legend:
[1] = tested on: ECHCO (Echinochloa colonum, junglerice); experiment: Pre-emergence soil-applied mixtures, greenhouse; type: in vivo, Echinochloa colonum (L.) Link
Description: Seeds or nutlets of the desired test plant species were planted in a soil matrix prepared by mixing a loam soil (32 percent silt, 23 percent clay, and 45 percent sand, with a pH of about 6.5 and an organic matter content of about 1.9 percent) and calcareous grit in an 80 to 20 ratio. The soil matrix was contained in plastic pots with a volume of 1 quart and a surface area of 83.6 square centimeters (cm^2).
Treatments consisted of the benzyl ester of 4-amino-3-chloro-5-fluoro-6-(4-chloro-2-fluoro-3-methoxy-phenyl)pyridine-2-carboxylic acid (compound A) formulated as an SC (suspension concentrate) and various herbicidal components alone and in combination. Forms of compound A were applied on an acid equivalent basis.
Other herbicidal components were applied on an acid equivalent or active ingredient basis and included the PSII-inhibiting herbicides, atrazine formulated as Atrazine® 90WDG, metribuzin formulated as Metribuzin 75DF, simazine formulated as Princep Caliber 90, tebuthiuron formulated as Spike 80DF, cyanazine (technical grade material), hexazinone (technical grade material), linuron (technical grade material), terbuthylazine (technical grade material), and diuron formulated as Diuron 4L.
Treatment requirements were calculated based upon the rates being tested, the concentration of active ingredient or acid equivalent in the formulation, and a 12 mL application volume at a rate of 187 L/ha.
For treatments comprised of formulated compounds, measured amounts of compounds were placed individually in 25 mL glass vials and diluted in a volume of 1.25% (v/v) Agri-Dex® crop oil concentrate (COC) to obtain 12× stock solutions. […]
For treatments comprised of formulated and technical compounds, weighed amounts of the technical materials can be placed individually in 25 mL glass vials and dissolved in a volume of 97:3 (v/v) acetone/DMSO to obtain 12× stock solutions, and measured amounts of the formulated compounds can be placed individually in 25 mL glass vials and diluted in a volume of 1.5% (v/v) COC or water to obtain 12× stock solutions. […]

[2] = tested on: SINAR (Sinapis arvensis, wild mustard); experiment: Postemergence herbicidal activity of mixtures in cereal crops, greenhouse; type: in vivo, Sinapis arvensis L.
Protocol: Seeds of the desired test plant species were planted in Sun Gro MetroMix® 306 planting mixture, which typically has a pH of 6.0 to 6.8 and an organic matter content of about 30 percent, in plastic pots with a surface area of 103.2 square centimeters (cm^2). When required to ensure good germination and healthy plants, a fungicide treatment and/or other chemical or physical treatment was applied. The plants were grown for 7-36 days in a greenhouse with an approximate 14 hour photoperiod which was maintained at about 18° C. during the day and about 17° C. during the night. Nutrients and water were added on a regular basis and supplemental lighting was provided with overhead metal halide 1000-Watt lamps as necessary. The plants were employed for testing when they reached the second or third true leaf stage.
Treatments consisted of the benzyl ester of 4-amino-3-chloro-5-fluoro-6-(4-chloro-2-fluoro-3-methoxy-phenyl)pyridine-2-carboxylic acid (Compound A), formulated as an SC, a second cereal herbicide alone and then both in combination.
Other herbicidal components were applied on an active ingredient basis and included PSII-inhibiting herbicides.
Measured aliquots of benzyl ester of 4-amino-3-chloro-5-fluoro-6-(4-chloro-2-fluoro-3-methoxy-phenyl)pyridine-2-carboxylic acid (Compound A) were placed in 25 milliliter (mL) glass vials and diluted in a volume of 1.25% (v/v) Agri-Dex® crop oil concentrate to obtain stock solutions. Compound requirements are based upon a 12 mL application volume at a rate of 187 liters per hectare (L/ha). Spray solutions of the second cereal herbicide and experimental compound mixtures were prepared by adding the stock solutions to the appropriate amount of dilution solution to form 12 mL spray solution with active ingredients in two- and three-way combinations. Formulated compounds were applied to the plant material with an overhead Mandel track sprayer equipped with an 8002E nozzle calibrated to deliver 187 L/ha over an application area of 0.503 square meters (m^2) at a spray height of 18 inches (46 cm) above average plant canopy. Control plants were sprayed in the same manner with the solvent blank.
The treated plants and control plants were placed in a greenhouse as described above and watered by sub-irrigation to prevent wash-off of the test compounds. After 20-22 days, the condition of the test plants as compared with that of the control plants was determined visually and scored on a scale of 0 to 100 percent where 0 corresponds to no injury and 100 corresponds to complete kill.
Colby's equation was used to determine the herbicidal effects expected from the mixtures (Colby, S. R. 1967. Calculation of the synergistic and antagonistic response of herbicide combinations. Weeds 15:20-22).
The following equation was used to calculate the expected activity of mixtures containing two active ingredients, A and B: Expected=A+B−(A×B/100)

Structure (SMILES): COc1c(Cl)ccc(-c2nc(C(=O)OCc3ccccc3)c(Cl)c(N)c2F)c1F [Compound A Benzyl Ester, benzyl ester of 4-amino-3-chloro-5-fluoro-6-(4-chloro-2-fluoro-3-methoxy-phenyl)pyridine-2-carboxylic acid]
- Visual Weed Control (%)-29 DAA ECHCO Obs ([1]; Compound A Benzyl Ester 16 g ae/ha): 0%
- Visual Weed Control (%)-29 DAA ECHCO Obs ([1]; Compound A Benzyl Ester 32 g ae/ha): 5%
- Visual Weed Control (%)-21 DAA SINAR Obs ([2]; Compound A Benzyl Ester 2.5 g ai/ha, Table 21): 70%
- Visual Weed Control (%)-21 DAA SINAR Obs ([2]; Compound A Benzyl Ester 2.5 g ai/ha, Table 22): 70%
- Visual Weed Control (%)-21 DAA SINAR Obs ([2]; Compound A Benzyl Ester 5 g ai/ha, Table 21): 73%
- Visual Weed Control (%)-21 DAA SINAR Obs ([2]; Compound A Benzyl Ester 5 g ai/ha, Table 22): 73%

From US8912121B2, “Herbicidal compositions comprising 4-amino-3-chloro-5-fluoro-6-(4-chloro-2-fluoro-3-methoxyphenyl)pyridine-2-carboxylic acid or a derivative thereof and certain PS II inhibitors” (Dow Agrosciences LLC, priority 2012, dated 2014)
